This is an account of results in EPA's ToxValDB 9.5.

Values after ≈ are worked out from the molar mass of the structure shown. Values joined by “and” are separate entries in the source; they are usually repeats but may differ in a detail not shown here. Identical values can stand only once.

One series relates to Oryctolagus sp. The conditions noted are these: acute, dermal.
In a further series the test system is Rattus norvegicus. The conditions noted are these: for LC50 / LD50: acute; for LD50 / NOAEL / LOAEL: oral.
In series [1] the test system is Mus musculus.
Series [2] concerns Mus musculus. The conditions noted are these: uterotrophic, Active.
[3] abbreviates: reproduction developmental, gavage, F, Sprague-Dawley.
Where [4] appears, read: short-term, duration: 27 days, gavage, Sprague-Dawley.
Where [5] appears, read: subchronic, duration: 13 weeks, oral, gavage, F, B6C3F1.
Where [6] appears, read: subchronic, duration: 13 weeks, oral, gavage, M, B6C3F1.
Setting [7] is: developmental, duration: 10 days, Wistar.
Setting [8] is: developmental, duration: 128 days, gavage, Wistar.
Where [9] appears, read: reproduction developmental, duration: 10 days, F, Wistar.
[10] abbreviates: reproduction developmental, duration: 27 days, gavage, F, Wistar.
Setting [11] is: reproduction developmental, duration: 27 days, gavage, Wistar, generation: F1.
Setting [12] is: reproduction developmental, duration: 86 days, gavage, Wistar.
The mark [13] stands for this setting: reproduction developmental, duration: 128 days, gavage, F, Wistar.
The mark [14] stands for this setting: reproduction developmental, duration: 128 days, gavage, Wistar.
Setting [15] is: short-term, duration: 28 days, diet, Sprague-Dawley.

Turning to `O=C(O)CCCCCCCCCCC(=O)O` [Dodecanedioic acid], the LD50 is above 6000 mg/kg in the series on Oryctolagus sp. (occlusive), above 3000 mg/kg in the series on Rattus norvegicus and above 17000 mg/kg in the series on Rattus norvegicus (gavage). The LC50 in the series with Rattus norvegicus (Inhalation) is above 4.3 µg/mL. In addition, in the series with Rattus norvegicus (reproduction developmental, duration: 50 days, gavage, CRL:CD BR), the NOAEL (usually the highest dose or exposure tested at which no adverse effect was seen) came out at 1000 mg/kg-day.

`CCCCCCC(=O)O` [Heptanoic acid]: the LD50 in the series with Oryctolagus sp. (albino) was at least 2000 mg/kg; with Rattus norvegicus, 8370 mg/kg. The NOAEL in the series on Mus musculus [1] (chronic, duration: 80 weeks, dermal, C3H/HeCr) was 50 mg; in the series on Rattus norvegicus (developmental, duration: 9 days, gavage, Sprague-Dawley), 1000 mg/kg-day; with Rattus norvegicus (reproduction developmental, duration: 9 days, gavage, F, Sprague-Dawley), 1000 mg/kg-day; with Rattus norvegicus (setting [3]), below 200 mg/kg-day; in the series with Rattus norvegicus (reproduction developmental, gavage, Sprague-Dawley, generation: F1) it was ≥ 1000 mg/kg-day and ≤ 2000 mg/kg-day; with Rattus norvegicus (setting [4]) it was 1750 mg/kg-day. This compound also registered an LC50 in the series on Rattus norvegicus (Inhalation, Sprague-Dawley) above 4.6 µg/mL. Further, the figures for the LOAEL with Rattus norvegicus (setting [3]) and in the series with Rattus norvegicus (setting [4]) were above 1000 mg/kg-day and 3500 mg/kg-day, respectively.

Take `O=C1OC(=O)C2CCCCC12` (configuration not stated) [Hexahydrophthalic anhydride]: the LD50 in the series on Oryctolagus sp. (New Zealand) is above 2000 mg/kg; in the series with Rattus norvegicus, 3310 mg/kg; with Rattus norvegicus (Sprague-Dawley), ≥ 2700 mg/kg and ≤ 2800 mg/kg. In the series on Rattus norvegicus (Inhalation, Sprague-Dawley), this compound gave an LC50 above 1100 mg/m3.

On to `C=CC(=C)CCC=C(C)C` [Myrcene], for which the LD50 in the series on Oryctolagus sp. (New Zealand) is above 5000 mg/kg; in the series with Mus musculus [1] (acute, oral, gavage, Swiss), 5060 mg/kg; in the series on Rattus norvegicus (Wistar), above 5000 mg/kg; in the series on Rattus norvegicus (gavage, Wistar), above 11400 mg/kg. Moreover, the LOAEL (usually the lowest tested level that showed an adverse finding) in the series with Mus musculus [1] (setting [5]) was 500 mg/kg-day; with Mus musculus [1] (setting [6]) it was 1000 mg/kg-day; in the series on Rattus norvegicus (setting [7]), 1200 mg/kg-day; with Rattus norvegicus (setting [8]) it was 500 mg/kg-day; with Rattus norvegicus (setting [9]), 1200 mg/kg-day; in the series on Rattus norvegicus (setting [10]) it was 1000 mg/kg-day. Further, the LOAEL with Rattus norvegicus (setting [11]) came out at 500 mg/kg-day; with Rattus norvegicus (setting [12]) it was 500 mg/kg-day; in the series with Rattus norvegicus (setting [13]) it was 1000 mg/kg-day; with Rattus norvegicus (setting [14]), 500 mg/kg-day; in the series on Rattus norvegicus (subchronic, duration: 13 weeks, gavage, Fischer 344), 250 mg/kg-day. Moreover, the NOAEL in the series with Mus musculus [1] (setting [5]) was found to be 250 mg/kg-day; with Mus musculus [1] (setting [6]), 500 mg/kg-day; in the series on Rattus norvegicus (setting [7]), 500 mg/kg-day; in the series with Rattus norvegicus (developmental, duration: 27 days, gavage, Wistar), 250 mg/kg-day; in the series on Rattus norvegicus (setting [8]), 250 mg/kg-day; in the series on Rattus norvegicus (setting [9]), 500 mg/kg-day. Also, the NOAEL with Rattus norvegicus (setting [10]) stood at 500 mg/kg-day; in the series on Rattus norvegicus (setting [11]), 250 mg/kg-day; in the series with Rattus norvegicus (setting [12]) it was 300 mg/kg-day; in the series with Rattus norvegicus (setting [13]), 500 mg/kg-day; in the series with Rattus norvegicus (setting [14]) it was 250 mg/kg-day; in the series on Rattus norvegicus (reproduction developmental, gavage, Wistar), 300 mg/kg-day.

With `Cc1ccc(N(C)C)cc1` [N,N,4-Trimethylaniline], the LD50 in the series with Oryctolagus sp. (New Zealand) is above 2000 mg/kg; in the series on Rattus norvegicus (Sprague-Dawley), 1650 mg/kg. The same compound showed an LC50 with Rattus norvegicus (inhalation, Sprague-Dawley) of 1.4 µg/mL (≈ 10.4 µM).

In the series on Oryctolagus sp. (occlusive, New Zealand), `CC(C)CCC(C)Nc1ccc(Nc2ccccc2)cc1` (configuration not stated) [N-(5-Methyl-2-hexyl)-N'-phenyl-p-phenylenediamine] showed an LD50 above 5010 mg/kg. In the series with Rattus norvegicus (setting [15]), this compound displayed an LOAEL of 750 ppm and a no observed adverse effect level (NOAEL) of 500 ppm.

`CCCCCCCCCc1cc2ccccc2c(S(=O)(=O)[O-])c1CCCCCCCCC.CCCCCCCCCc1cc2ccccc2c(S(=O)(=O)[O-])c1CCCCCCCCC.[Ba+2]` [Naphthalenesulfonic acid, dinonyl-, barium salt]: the LD50 in the series on Oryctolagus sp. (New Zealand) is below 20000 mg/kg; in the series on Rattus norvegicus (diet, Sprague-Dawley), above 5000 mg/kg; with Rattus norvegicus (gavage, Wistar) it was above 5000 mg/kg. The compound also returned an LC50 in the series on Rattus norvegicus (Inhalation, Wistar) above 21 µg/mL.

In the series on Mus musculus [2] (duration: 3 days, oral), `O=C(Oc1ccccc1)c1ccccc1O` [Phenyl salicylate] showed an LEL of 33.3 mg/kg-day.

For `O=C(O)Cc1cc(I)c(Oc2ccc(O)c(I)c2)c(I)c1` [Tiratricol], the LEL was determined as 1000 mg/kg-day with Mus musculus [2] (duration: 7 days, injection, subcutaneous) and 1000 mg/kg-day with Mus musculus [2] (duration: 7 days, oral).

`CC[C@H](c1ccc(O)cc1)[C@@H](CC)c1ccc(O)cc1` [meso-Hexestrol]: the LEL with Mus musculus [2] (duration: 1 days, injection, subcutaneous) stood at 0.00914 mg/animal; in the series on Mus musculus [2] (duration: 1.2 days, injection, subcutaneous), 0.00914 mg/animal.
